The numbers were not newly measured in US11154542B2, “Nail lacquer composition containing ciclopirox” (GENUONE SCIENCES INC., priority 2015, dated 2021), which cites them from elsewhere.

The subject of the data set is fungus. Conditions: laboratory researches.

In the case of `CCC(C)(C)c1ccc(CC(C)CN2C[C@@H](C)O[C@@H](C)C2)cc1` (some centres unmarked) [amorolfine, Amorolfine], the antifungal activity result is given as “low antifungal activity” and the “formation of spores that resist antifungal agents” value is on record as “effective in reducing the formation of spores”.
